Measurements reported in publication PMC3365589 (Journal of the American Chemical Society, 2011).

Tests used:
human α7 nAChR = human α7 nAChR (Homo sapiens, UniProt P36544); format: cell-based
α1_2βγδ (Torpedo) nAChR [1] = assay: Equilibrium competition binding with [125I]α-BTX on Torpedo membranes; conditions: read-out: Ki ± SEM
chimeric α7-5HT3 nAChR = chimeric α7-5HT3 nAChR (UniProt P22770+P23979, M226I/T225I); format: binding; conditions: read-out: Ki ± SEM; α7–5HT3 (chick), [125I]α-BTX
human α4β2 nAChR = human α4β2 nAChR (Homo sapiens, UniProt P17787+P43681); format: binding
human α3β2 nAChR = human α3β2 nAChR (Homo sapiens, UniProt P17787+P32297); format: binding; conditions: read-out: Ki ± SEM, [3H]epibatidine
human M1 mAChR = assay: [3H]NMS binding inhibition, CHO cell membranes, M1; conditions: 1 μM
human M2 mAChR = assay: [3H]NMS binding inhibition, CHO cell membranes, M2; conditions: 1 μM
human M3 mAChR = assay: [3H]NMS binding inhibition, CHO cell membranes, M3; conditions: 1 μM
human M4 mAChR = assay: [3H]NMS binding inhibition, CHO cell membranes, M4; conditions: 1 μM
human M5 mAChR = assay: [3H]NMS binding inhibition, CHO cell membranes, M5; conditions: 1 μM, M5, [3H]NMS
calcium channels = assay: Broad receptor binding screening; conditions: 10 μM
mice = conditions: intraperitoneal injection of a lethal dose
α1_2βγδ (Torpedo) nAChR [2] = conditions: read-out: Kd of radioligand on muscle-type receptor; cited from earlier work

| Compound | Effect on rate of desensitization of ACh-evoked currents (human α7 nAChR; 350 μM ACh, −60 mV) | Direct agonist effect (current evoked when applied on its own) (human α7 nAChR; 0.1–50 nM, n = 6) | Reversibility of blocking action on α7 nAChR (human α7 nAChR; after a 10–15 min washout) | Ki (α1_2βγδ (Torpedo) nAChR [1]) [nM] | Ki (chimeric α7-5HT3 nAChR) [nM] | Fraction of [3H]epibatidine displaced (partial antagonist property) (human α4β2 nAChR) | Ki (human α4β2 nAChR; read-out: Ki ± SEM, α4β2 (human), [3H]epibatidine) [nM] | Ki (human α3β2 nAChR) [nM] | Effect on 3H-NMS binding (human M1 mAChR) | Effect on 3H-NMS binding (human M2 mAChR) | Effect on 3H-NMS binding (human M3 mAChR) | Effect on 3H-NMS binding (human M4 mAChR) | Radiotracer displacement (human M5 mAChR) [%] | Binding activity for calcium channels (calcium channels) | Toxicological profile (symptoms) (mice) | Kd (α1_2βγδ (Torpedo) nAChR [2]) [nM] |
| --- | --- | --- | --- | --- | --- | --- | --- | --- | --- | --- | --- | --- | --- | --- | --- | --- |
| C=C1CCCC2=NC[C@H](C)[C@@H](C)C[C@@]23CCC(C(=O)O)=C[C@@H]3[C@@H]2O[C@]3(C[C@H]4CCC[C@@]5(CC[C@@]6(O[C@@H](CC[C@@]6(C)O)C1)O5)O4)C[C@@H](C)[C@@H](O)[C@H]2O3 [PnTX A, pinnatoxin A] | did not appear to affect the rate of desensitization | did not evoke any current | not reversible | 2.8 ± 0.03 | 0.35 ± 0.04 | approximately half | 15.6 ± 5.2 | 9.4 ± 1.9 | no significant effect | no significant effect | no significant effect | no significant effect | 35 | no significant binding activity | transient mouse hyperactivity, followed by a decrease in respiratory rate with prominent abdominal breathing leading to death due to respiratory paralysis | – |
| α-bungarotoxin [α-BTX] | – | – | – | – | – | – | – | – | – | – | – | – | – | – | – | 0.05 |
